Laboratory results published in the NIST ThermoML archive (doi:10.1021/je200921u).
Numbers after ± are expanded uncertainties. One block for each compound: values may come before it.

Details: Liquid, Ebulliometric method (Recirculating still)

- vapor or sublimation pressure (351.35 K): 101.3 ± 2.6 kPa
- vapor or sublimation pressure (356.11 K): 121.3 ± 3.1 kPa
- vapor or sublimation pressure (363.55 K): 161.3 ± 4.1 kPa
- vapor or sublimation pressure (369.55 K): 201.3 ± 5.1 kPa
SMILES: CCO [ethanol]

- vapor or sublimation pressure (355.35 K): 101.3 ± 2.6 kPa
- vapor or sublimation pressure (359.95 K): 121.3 ± 3.1 kPa
- vapor or sublimation pressure (367.65 K): 161.3 ± 4.1 kPa
- vapor or sublimation pressure (373.65 K): 201.3 ± 5.1 kPa
SMILES: CC(C)O [propan-2-ol]

SMILES: Cc1ccccc1 [toluene]
- vapor or sublimation pressure (383.55 K): 101.3 ± 2.7 kPa
- vapor or sublimation pressure (390.25 K): 121.3 ± 3.2 kPa
- vapor or sublimation pressure (390.26 K): 121.3 ± 3.2 kPa
- vapor or sublimation pressure (400.75 K): 161.3 ± 4.3 kPa
- vapor or sublimation pressure (409.65 K): 201.3 ± 5.3 kPa
